Measured values reported in patent US4122184A, “Benzimidazole insecticides” (priority 1977, dated 1978).
Where “and” joins values, the source holds several entries; their conditions need not be identical. Equal entries are not always repeated.

Experiments:
[1] = tested on: Bean Leaf Beetle; experiment: Field trial, stomach poison test; format: in vivo
Summary of the method: (§1)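 Leaves from infested host plants were sprayed (atomizer, 10 psi) or dipped in compound solutions at several concentrations, air-dried, then placed in Petri dishes with five or ten insects each. One or two replicates, usually two or three rates; mortality read at 24, 48 and 72 h on a 0–9 scale.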

[2] = tested on: Bean Leaf Beetle; experiment: Field trial, contact poison test; format: in vivo
Summary of the method: (§2)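 Mortality after direct spraying was scored at 24, 48 and 72 hours where applicable, using a 0–9 rating tied to 10% bands. Plants bearing insects received atomized compound at 10 psi over a range of concentrations.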

[3] = tested on: Southern Corn Rootworm Adults; experiment: Field trial, contact poison test; format: in vivo
Summary of the method: as §2

[4] = tested on: Red-Legged Grasshopper Adults; experiment: Field trial, contact poison test; format: in vivo
Summary of the method: as §2

[5] = tested on: Squash Bug Adults; experiment: Field trial, contact poison test; format: in vivo; set-up: key: 0-9 rating: 0 = 0-10% mortality, 9 = 91-100% mortality
Summary of the method: as §2

[6] = tested on: Southern Corn Rootworm Adults; experiment: Field trial, stomach poison test; format: in vivo; set-up: key: mortality rating on a 0 to 9 scale
Summary of the method: as §1

[7] = tested on: Striped Cucumber Beetle Adults; experiment: Field trial, stomach poison test; format: in vivo; set-up: key: mortality rating on a 0 to 9 scale
Summary of the method: as §1

[8] = tested on: Mexican Bean Beetle; experiment: Mexican Bean Beetle Test; format: in vivo, Epilachna varivestis (Coleoptera); details: 48 h
Description: Cuttings of four six-day old Bountiful snap bean plants containing two leaves with approximately 5 square inches of leaf surface, are placed in water. The leaves are sprayed to wetting with about 5-10 ml. of a formulation containing a pre-determined level of the test compound. Half of the formulation is sprayed on the top surface and half on the bottom surface of the leaf using a DeVilbiss atomizer at 10 psi held at a distance of about 18 inches from the leaf. After the leaves have dried, they are cut from the stem and placed separately in petri dishes. Ten third instar, nonmolting Mexican bean beetle larvae grown on Bountiful snap beans are placed on each leaf. Controls consist of two leaves sprayed with 5 ml. of a 500 ppm malathion formulation (reference standard), two leaves sprayed with the formulation without the active ingredient and two leaves are held as untreated controls. After 48 hours, a mortality count is made and the amount of feeding noted. Moribund larvae are counted as dead.

[9] = tested on: Oriental Cockroach; experiment: Oriental Roach Test; format: in vivo, Blatta orientalis (Orthoptera); details: 24 h
Description: A rearing pan of late instar (3-4 months old) roaches is placed in a cold room for about 1 hour. Ten nymphs are taken from the pan and placed in each cage and the caged insects are kept at 70°-80° F. for 1 hour. The test cages are then sprayed in the manner indicated above in the milkweed bug test using 5 ml. of a formulation containing a specified amount of the insecticide. The test cages are held for 72 hours during which time the cockroaches are neither fed nor watered. Controls consist of 2 unsprayed cages, two cages sprayed with the formulation alone and 2 cages with a formulation containing 1000 ppm of heptachlor. Mortality counts are made 24 hours after spraying by shaking the cages lightly. All cockroaches remaining in the bottom are counted as dead.

[10] = tested on: Milkweed Bug; experiment: Milkweed Bug Test; format: in vivo, Oncopeltis fasciatus (Hemiptera); details: 48 h
Description: Ten adult milkweed bugs are chilled and placed in a test cage. The cages containing the bugs are sprayed with 5 ml. of a test formulation containing a pre-determined amount of the insecticide, using a DeVilbiss atomizer at 10 psi held 33 inches from the top of the cage. After the cage has been allowed to dry, the bugs are fed and watered for 48 hours. A formulation containing 500 ppm of malathion is used as a reference standard and two unsprayed cages are kept as controls. Mortality counts are made 48 hours after spraying. Moribund adults are considered dead. The same rating scale is employed as before.

[11] = tested on: Southern Armyworm; experiment: Southern Armyworm Test; format: in vivo, Prodenia eridania (Lepidoptera); details: 48 h
Description: Ten uniform Southern armyworm larvae about 1-1.5 cm. in length, grown on Henderson lima beans, are placed on excized bean leaves in petri dishes. The bean leaves are obtained and sprayed with the insecticide in the same way as are the snap bean leaves in the Mexican bean beetle test. The reference standards in this instance are leaves sprayed with 5 ml. 100 ppm DDT solution. Mortality counts are made 48 hours after spraying and again moribund larvae are counted as dead. Missing larvae which have probably been eaten are considered alive. The same rating scale is used as in the Mexican bean beetle test.

[12] = tested on: Two-spotted Spider Mite; experiment: Two-spotted Spider Mite test; format: in vivo, Tetranychus urticae (Acarina); details: 48 h
Description: The procedure in this test is the same as that in the previous aphid test, except that about 100 two-spotted spider mites from a stock colony raised on squash plants are transferred to a cut squash cotyledon. The mortality is estimated 48 hours after spraying. The same rating scale is used.

O=[N+]([O-])c1cc(C(F)(F)F)cc2nc(C(F)(F)F)[nH]c12 [A, 2,6-bis(trifluoromethyl)-4-nitrobenzimidazole]
average mortality rating ([1]; 10 ppm): 0 (0-10 percent)
average mortality rating ([1]; 25 ppm): 0 (0-10 percent)
average mortality rating ([1]; 50 ppm): 1
average mortality rating ([2]; 25 ppm): 0 (0-10 percent)
average mortality rating ([2]; 50 ppm): 0 (0-10 percent)
average mortality rating ([2]; 100 ppm): 0 (0-10 percent)
average mortality rating ([3]; 25 ppm): 4
average mortality rating ([3]; 50 ppm): 6
average mortality rating ([3]; 100 ppm): 8
average mortality rating ([4]; 10 ppm): 3
average mortality rating ([4]; 25 ppm): 4
average mortality rating ([4]; 50 ppm): 4
average mortality rating ([5]; 125 ppm): 0 (0-10 percent)
average mortality rating ([5]; 250 ppm): 6
average mortality rating ([5]; 500 ppm): 9 (91-100 percent mortality)
average mortality rating ([5]; 750 ppm): 9 (91-100 percent mortality)
average mortality rating ([6]; 25 ppm): 4
average mortality rating ([6]; 50 ppm): 6
average mortality rating ([6]; 100 ppm): 7
average mortality rating ([7]; 10 ppm): 1
average mortality rating ([7]; 25 ppm): 3
average mortality rating ([7]; 50 ppm): 6
average mortality rating ([7]; 100 ppm): 5

CC(C)OC(=O)n1c(C(F)(F)F)nc2c([N+](=O)[O-])cc(C(F)(F)F)cc21 [I, isopropyl 2,6-bis(trifluoromethyl)-4-nitro-1-benzimidazolecarboxylate]
average mortality rating ([1]; 10 ppm): 0 (0-10 percent)
average mortality rating ([1]; 25 ppm): 1
average mortality rating ([1]; 50 ppm): 3
mortality rating ([8]; 25 ppm): 6.5
average mortality rating ([2]; 25 ppm): 0 (0-10 percent)
average mortality rating ([2]; 50 ppm): 0 (0-10 percent)
average mortality rating ([2]; 100 ppm): 4
average mortality rating ([4]; 10 ppm): 2
average mortality rating ([4]; 25 ppm): 3
average mortality rating ([4]; 50 ppm): 5
average mortality rating ([5]; 125 ppm): 3
average mortality rating ([5]; 250 ppm): 1
average mortality rating ([5]; 500 ppm): 0 (0-10 percent)
average mortality rating ([5]; 750 ppm): 0 (0-10 percent)
mortality rating ([9]; 100 ppm): 1.5
mortality rating ([9]; 250 ppm): 5.5
mortality rating ([9]; 500 ppm): 6.5
average mortality rating ([7]; 10 ppm): 2
average mortality rating ([7]; 25 ppm): 3
average mortality rating ([7]; 50 ppm): 6
average mortality rating ([7]; 100 ppm): 9 (91-100 percent mortality)

mixture of N,N-dimethyl-4-nitro-2,6-bis(trifluoromethyl)thio-1-benzimidazolecarboxamide and N,N-dimethyl-7-nitro-2,5-bis(trifluoromethyl)thio-1-benzimidazolecarboxamide [P]
mortality rating ([8]; 10 ppm): 0 (0-10)
mortality rating ([8]; 25 ppm): 0 (0-10)
mortality rating ([8]; 50 ppm): 4.5
mortality rating ([8]; 100 ppm): 7 (71-80)
mortality rating ([8]; 250 ppm): 7.5
mortality rating ([8]; 500 ppm): 8.5
mortality rating ([8]; 1000 ppm): 9 (91-100)
mortality rating ([10]; 10 ppm): 0 (0-10)
mortality rating ([10]; 25 ppm): 0 (0-10)
mortality rating ([10]; 50 ppm): 3.5
mortality rating ([10]; 100 ppm): 4.5
mortality rating ([10]; 250 ppm): 4 (41-50)
mortality rating ([10]; 500 ppm): 4 (41-50)
mortality rating ([10]; 1000 ppm): 2 (21-30)
mortality rating ([11]; 250 ppm): 0 (0-10)
mortality rating ([11]; 500 ppm): 0 (0-10)
mortality rating ([11]; 1000 ppm): 3.5
mortality rating ([12]; 1 ppm): 3 (31-40)
mortality rating ([12]; 5 ppm): 4 (41-50)
mortality rating ([12]; 10 ppm): 4 (41-50)
mortality rating ([12]; 25 ppm): 6 (61-70)
mortality rating ([12]; 50 ppm): 7.0
mortality rating ([12]; 100 ppm): 7.5
mortality rating ([12]; 250 ppm): 8.5
mortality rating ([12]; 500 ppm): 9 (91-100)
mortality rating ([12]; 1000 ppm): 9 (91-100)
mortality rating ([9]; 50 ppm): 0 (0-10)
mortality rating ([9]; 100 ppm): 2.5
mortality rating ([9]; 250 ppm): 5.5
mortality rating ([9]; 500 ppm): 9 (91-100)
mortality rating ([9]; 1000 ppm): 8 (81-90)
average mortality rating ([7]; 10 ppm): 5
average mortality rating ([7]; 25 ppm): 4
average mortality rating ([7]; 50 ppm): 5
average mortality rating ([7]; 100 ppm): 9 (91-100 percent mortality)

mixture of methyl 2,6-bis(trifluoromethyl)-4-nitro-1-benzimidazolecarboxylate and methyl 2,5-bis(trifluoromethyl)-7-nitro-1-benzimidazolecarboxylate
average mortality rating ([1]; 10 ppm): 1
average mortality rating ([1]; 25 ppm): 0 (0-10 percent)
average mortality rating ([1]; 50 ppm): 1
mortality rating ([8]; 5 ppm): 0 (0-10)
mortality rating ([8]; 10 ppm): 9 (91-100)
mortality rating ([8]; 25 ppm): 9 (91-100)
mortality rating ([8]; 50 ppm): 9 (91-100)
mortality rating ([8]; 100 ppm): 9 (91-100)
mortality rating ([8]; 250 ppm): 9 (91-100)
mortality rating ([8]; 500 ppm): 9 (91-100)
mortality rating ([8]; 1000 ppm): 9 (91-100)
mortality rating ([10]; 25 ppm): 5 (51-60)
mortality rating ([10]; 100 ppm): 8 (81-90)
mortality rating ([10]; 250 ppm): 9 (91-100)
mortality rating ([10]; 500 ppm): 9 (91-100)
mortality rating ([10]; 1000 ppm): 9 (91-100)
mortality rating ([11]; 1000 ppm): 1 (11-20)
average mortality rating ([2]; 25 ppm): 0 (0-10 percent)
average mortality rating ([2]; 50 ppm): 0 (0-10 percent)
average mortality rating ([2]; 100 ppm): 1
average mortality rating ([3]; 25 ppm): 5 and 3
average mortality rating ([3]; 100 ppm): 9 (91-100 percent mortality)
average mortality rating ([5]; 125 ppm): 0 (0-10 percent)
average mortality rating ([5]; 250 ppm): 0 (0-10 percent)
average mortality rating ([5]; 500 ppm): 2
average mortality rating ([5]; 750 ppm): 3
mortality rating ([12]; 10 ppm): 3 (31-40)
mortality rating ([12]; 25 ppm): 4 (41-50)
mortality rating ([12]; 50 ppm): 9 (91-100)
mortality rating ([12]; 100 ppm): 6 (61-70)
mortality rating ([12]; 250 ppm): 9 (91-100)
mortality rating ([12]; 500 ppm): 9 (91-100)
mortality rating ([12]; 1000 ppm): 9 (91-100)
mortality rating ([9]; 50 ppm): 0 (0-10)
mortality rating ([9]; 100 ppm): 0 (0-10)
mortality rating ([9]; 250 ppm): 5.5
mortality rating ([9]; 500 ppm): 9 (91-100)
mortality rating ([9]; 1000 ppm): 9 (91-100)
average mortality rating ([6]; 25 ppm): 3 and 4
average mortality rating ([6]; 50 ppm): 4
average mortality rating ([6]; 100 ppm): 6
average mortality rating ([7]; 10 ppm): 2
average mortality rating ([7]; 25 ppm): 0 (0-10 percent)
average mortality rating ([7]; 50 ppm): 5
average mortality rating ([7]; 100 ppm): 9 (91-100 percent mortality)
